From the NIST ThermoML archive (doi:10.1021/je030151s)
Numbers after ± are expanded uncertainties.

Columns and labels:
[1] = xn = mol fraction of the nth substance listed; conditions: 101.3 kPa, Liquid, x2 = 0; for viscosity: Capillary tube (Ostwald / Ubbelohde) method
[2] = 101.3 kPa, Liquid; for viscosity: Capillary tube (Ostwald / Ubbelohde) method

Structure (SMILES) | viscosity ([1]; 293.15 K) [mPa·s] | mass density ([1]; 293.15 K) [kg/m3] | speed of sound ([1]; 293.15 K) [m/s] | viscosity ([1]; 303.15 K) [mPa·s] | mass density ([1]; 303.15 K) [kg/m3] | speed of sound ([1]; 303.15 K) [m/s] | viscosity ([1]; 313.15 K) [mPa·s] | mass density ([1]; 313.15 K) [kg/m3] | speed of sound ([1]; 313.15 K) [m/s] | mass density ([2]; 293.15 K) [kg/m3] | speed of sound ([2]; 293.15 K) [m/s] | viscosity ([2]; 293.15 K) [mPa·s] | mass density ([2]; 303.15 K) [kg/m3] | speed of sound ([2]; 303.15 K) [m/s] | viscosity ([2]; 303.15 K) [mPa·s] | mass density ([2]; 313.15 K) [kg/m3] | speed of sound ([2]; 313.15 K) [m/s] | viscosity ([2]; 313.15 K) [mPa·s]
CCc1ccccc1 [ethylbenzene] + CCC(=O)CC | 0.6793 ± 0.0085 | 867.4 ± 1.2 | 1333.4 ± 3.5 | 0.6006 ± 0.0077 | 856.5 ± 1.2 | 1295.7 ± 3.4 | 0.5355 ± 0.007 | 848.9 ± 1.3 | 1259.8 ± 3.4 | – | – | – | – | – | – | – | – | –
CCc1ccccc1 [ethylbenzene] | – | – | – | – | – | – | – | – | – | 867.4 ± 1.2 | 1333.4 ± 3.5 | 0.6793 ± 0.0085 | 856.5 ± 1.2 | 1295.7 ± 3.4 | 0.6006 ± 0.0077 | 848.9 ± 1.3 | 1259.8 ± 3.4 | 0.5355 ± 0.007
Cc1ccccc1C [1,2-dimethylbenzene] | – | – | – | – | – | – | – | – | – | 880.2 ± 1.2 | 1365.6 ± 3.5 | 0.8092 ± 0.0098 | 871.8 ± 1.2 | 1339 ± 3.5 | 0.7172 ± 0.0089 | 863.2 ± 1.3 | 1297.5 ± 3.4 | 0.6292 ± 0.0079
Cc1ccccc1C [1,2-dimethylbenzene] + CCC(=O)CC | 0.8092 ± 0.0098 | 880.2 ± 1.2 | 1365.6 ± 3.5 | 0.7172 ± 0.0089 | 871.8 ± 1.2 | 1339 ± 3.5 | 0.6292 ± 0.0079 | 863.2 ± 1.3 | 1297.5 ± 3.4 | – | – | – | – | – | – | – | – | –
CCC(=O)CC [pentan-3-one] | – | – | – | – | – | – | – | – | – | 814.4 ± 1.1 | 1230.7 ± 3.3 | 0.4714 ± 0.0064 | 804.7 ± 1.1 | 1197.8 ± 3.3 | 0.4231 ± 0.0059 | 794.9 ± 1.2 | 1159.1 ± 3.3 | 0.3799 ± 0.0055
